Data reported in ChEMBL document CHEMBL1817597, “Antifungal thiopeptide cyclothiazomycin B1 exhibits growth inhibition accompanying morphological changes via binding to fungal cell wall chitin” (Bioorg Med Chem, 2011).
In brackets after ≈: the same amount, converted by molar mass. Activity calls are given as the source filed them. The rule behind the calls is not given here.

Assays:
[1] = test system: Mucor mucedo; assay: Inhibition of DNA synthesis in Mucor mucedo IFO 7684 assessed as [8-14C]-adenine uptake into acid-insoluble fractions at 0.13 uM after 25 mins by liquid scintillation counting; type: functional; settings: IFO 7684, 25 min
[2] = test system: Rhizopus arrhizus; assay: Antimicrobial activity against Rhizopus oryzae IFO 4766 at <6.55 uM after 24 hrs by broth microdilution method; type: functional, organism-based
[3] = test system: NIH3T3; assay: Cytotoxicity against mouse NIH/3T3 cells up to 65.5 uM after 24 hrs by Alamar blue assay; type: cell-based; settings: nih3t3, 24 h
[4] = test system: Mucor mucedo; assay: Antifungal activity against Mucor mucedo IFO 7684 under hypoosmotic shock assessed as increase of fragility of organism at 0.026 uM after 24 hrs measured after distilled water treatment for 10 mins by microscopic analysis; type: functional, organism-based
[5] = test system: Mucor mucedo; assay: Inhibition of chitin synthase in germinated Mucor mucedo IFO 7684 assessed as incorporation of GlcNAc from [14C]-UDP-GlcNAc into acid-insoluble fractions at 2.61 uM after 60 mins by liquid scintillation counting relative to control
[6] = test system: Saccharomyces cerevisiae; assay: Antimicrobial activity against Saccharomyces cerevisiae ATCC 7754 after 24 hrs by broth microdilution method; type: functional, organism-based
[7] = Binding affinity to curdlan at 6.55 uM after 30 mins by HPLC analysis
[8] = test system: Mucor javanicus; assay: Antimicrobial activity against Mucor javanicus IFO 4569 at <6.55 uM after 24 hrs by broth microdilution method; type: functional
[9] = test system: Fusarium solani; assay: Antimicrobial activity against Fusarium solani NBRC 8505 at <6.55 uM after 24 hrs by broth microdilution method; type: functional, organism-based
[10] = test system: Mucor mucedo; assay: Induction of morphological changes in Mucor mucedo IFO 7684 assessed as abnormal hyphae branching at MIC after 24 hrs by microscopic analysis; type: functional, organism-based
[11] = test system: Rhodotorula mucilaginosa; assay: Antimicrobial activity against Rhodotorula mucilaginosa IFO 0001 after 24 hrs by broth microdilution method; type: functional, organism-based
[12] = test system: Penicillium chrysogenum; assay: Antimicrobial activity against Penicillium chrysogenum IFO 4626 after 24 hrs by broth microdilution method; type: functional; settings: IFO 4626, 24 h
[13] = test system: Fusarium avenaceum; assay: Antimicrobial activity against Fusarium avenaceum NBRC 33237 at <6.55 uM after 24 hrs by broth microdilution method; type: functional, organism-based
[14] = Binding affinity to chitin at 6.55 uM after 30 mins by HPLC analysis
[15] = test system: Fusarium avenaceum; assay: Antimicrobial activity against Fusarium avenaceum NBRC 33237 after 24 hrs by broth microdilution method; type: functional; settings: NBRC 33237, 24 h
[16] = test system: Aspergillus nidulans; assay: Antimicrobial activity against Aspergillus nidulans FGSC A4 at <6.55 uM after 24 hrs by broth microdilution method; type: functional, organism-based
[17] = test system: Mucor mucedo; assay: Antimicrobial activity against Mucor mucedo IFO 7684 after 24 hrs by broth microdilution method in presence of 100 uM of PKA activator dbcAMP; type: functional; settings: IFO 7684, 24 h
[18] = test system: Saccharomyces cerevisiae; assay: Antimicrobial activity against Saccharomyces cerevisiae IFO 0203 after 24 hrs by broth microdilution method; type: functional, organism-based
[19] = test system: Fusarium oxysporum; assay: Antimicrobial activity against Fusarium oxysporum NBRC 30700 at <6.55 uM after 24 hrs by broth microdilution method; type: functional, organism-based
[20] = test system: Mucor mucedo; assay: Induction of morphological changes in Mucor mucedo IFO 7684 assessed as thickening of hyphae at 0.026 uM after 24 hrs by microscopic analysis in presence of 100 uM of PKA activator dbcAMP; type: functional, organism-based
[21] = test system: Mucor mucedo; assay: Induction of morphological changes in Mucor mucedo IFO 7684 assessed as thickening of hyphae at MIC after 24 hrs by microscopic analysis; type: functional, organism-based
[22] = test system: Fusarium oxysporum; assay: Binding affinity to cell wall polysaccharides in Fusarium oxysporum NBRC 5942 at 6.55 uM after 30 mins by HPLC analysis
[23] = test system: Fusarium graminearum; assay: Antimicrobial activity against Gibberella zeae NBRC 8850 at <6.55 uM after 24 hrs by broth microdilution method; type: functional, organism-based
[24] = test system: Mucor mucedo; assay: Effect on cell wall re-generation in Mucor mucedo IFO 7684 spheroplasts under hyperosmotic condition at 0.026 uM after 18 hrs by microscopic analysis; type: functional
[25] = test system: Aspergillus niger; assay: Antimicrobial activity against Aspergillus niger ATCC 6275 after 24 hrs by broth microdilution method; type: functional; settings: ATCC 6275, 24 h
[26] = test system: THP-1; assay: Cytotoxicity against human THP1 cells up to 65.5 uM after 24 hrs by Alamar blue assay; type: cell-based; settings: thp-1, 24 h
[27] = test system: Fusarium sporotrichioides; assay: Antimicrobial activity against Fusarium sporotrichioides NBRC 33236 at <6.55 uM after 24 hrs by broth microdilution method; type: functional
[28] = test system: Candida albicans; assay: Antimicrobial activity against Candida albicans IFO 1061 after 24 hrs by broth microdilution method; type: functional, organism-based
[29] = test system: Aspergillus fumigatus; assay: Antimicrobial activity against Aspergillus fumigatus IFO 5840 at <6.55 uM after 24 hrs by broth microdilution method; type: functional, organism-based
[30] = test system: Fusarium solani; assay: Antimicrobial activity against Fusarium solani NBRC 5899 at <6.55 uM after 24 hrs by broth microdilution method; type: functional, organism-based
[31] = test system: Mucor mucedo; assay: Binding affinity to cell wall polysaccharides in Mucor mucedo IFO 7684 at 6.55 uM after 30 mins by HPLC analysis
[32] = test system: Fusarium oxysporum; assay: Induction of morphological changes in Fusarium oxysporum NBRC 5942 assessed as thickening of hyphae at MIC after 24 hrs by microscopic analysis; type: functional, organism-based
[33] = Binding affinity to chitosan at 6.55 uM after 30 mins by HPLC analysis
[34] = test system: Neurospora sitophila; assay: Antimicrobial activity against Neurospora sitophila DSM 1130 after 24 hrs by broth microdilution method; type: functional; settings: DSM 1130, 24 h
[35] = test system: Mucor mucedo; assay: Antifungal activity against Mucor mucedo IFO 7684 under hyperosmotic shock at 0.026 uM after 2 days by paper disc method; type: functional, organism-based
[36] = test system: Schizosaccharomyces pombe; assay: Antimicrobial activity against Schizosaccharomyces pombe IFO 0342 after 24 hrs by broth microdilution method; type: functional, organism-based
[37] = test system: Aspergillus fumigatus; assay: Antimicrobial activity against Aspergillus fumigatus IFO 5840 after 24 hrs by broth microdilution method; type: functional; settings: IFO 5840, 24 h
[38] = test system: Aspergillus nidulans; assay: Antimicrobial activity against Aspergillus nidulans FGSC A4 after 24 hrs by broth microdilution method; type: functional; settings: FGSC A4, 24 h
[39] = test system: Pseudomonas aeruginosa; assay: Antimicrobial activity against Pseudomonas aeruginosa IFO 3080 after 24 hrs by broth microdilution method; type: functional, organism-based
[40] = test system: Mucor mucedo; assay: Antimicrobial activity against Mucor mucedo IFO 7684 after 24 hrs by broth microdilution method in presence of 100 uM of PKA inhibitor H8; type: functional; settings: IFO 7684, 24 h
[41] = test system: Neurospora sitophila; assay: Antimicrobial activity against Neurospora sitophila DSM 1130 at <6.55 uM after 24 hrs by broth microdilution method; type: functional
[42] = test system: Fusarium graminearum; assay: Antimicrobial activity against Gibberella zeae NBRC 8850 after 24 hrs by broth microdilution method; type: functional; settings: NBRC 8850, 24 h
[43] = test system: Fusarium fujikuroi; assay: Antimicrobial activity against Gibberella fujikuroi NBRC 6349 after 24 hrs by broth microdilution method; type: functional; settings: NBRC 6349, 24 h
[44] = test system: Mucor mucedo; assay: Induction of morphological changes in Mucor mucedo IFO 7684 assessed as swelling of hyphae at tips at MIC after 24 hrs by microscopic analysis; type: functional, organism-based
[45] = test system: Mucor javanicus; assay: Antimicrobial activity against Mucor javanicus IFO 4569 after 24 hrs by broth microdilution method; type: functional; settings: IFO 4569, 24 h

C=C1NC(=O)[C@H]2CSC(=N2)c2csc(n2)-c2ccc3c(n2)[C@H](C)NC(=O)[C@@H]2CCCN2C(=O)/C(=C/C)NC(=O)CNC(=O)[C@H](CCCNC(=N)N)NC(=O)C(C)(NC(=O)/C(=C/C)NC(=O)C2CSC(=N2)[C@H](CC(N)=O)NC3=O)SC[C@@H](C(=O)O)NC(=O)[C@H]2CSC(=N2)c2csc(n2)-c2csc1n2 [CYCLOTHIAZOMYCIN B1]
inhibition at 0.13 µM [1]: 84% | Activity [2]: inactive | Activity [3]: Non-toxic | Activity [4]: Active | inhibition [5]: 64% | Activity [6]: inactive | Activity [7]: inactive | Activity [8]: inactive | Activity [9]: inactive | Activity [10]: Active | Activity [11]: inactive | MIC [12]: 0.63 µg/mL (≈ 0.412 µM) | Activity [13]: inactive | Activity [14]: Active | MIC [15]: 0.25 µg/mL (≈ 0.164 µM) | Activity [16]: inactive | MIC [17]: 0.013 µM | Activity [18]: inactive | Activity [19]: inactive | Activity [20]: Active | Activity [21]: Active | Activity [22]: inactive | Activity [23]: inactive | Activity [24]: inactive | MIC [25]: > 1000 µg/mL | Activity [26]: Non-toxic | Activity [27]: inactive | Activity [28]: inactive | Activity [29]: inactive | Activity [30]: inactive | Activity [31]: inactive | Activity [32]: Active | Activity [33]: inactive | MIC [34]: > 1000 µg/mL | Activity [35]: inactive | Activity [36]: inactive | MIC [37]: > 1000 µg/mL | MIC [38]: > 1000 µg/mL | Activity [39]: inactive | MIC [40]: 0.013 µM | Activity [41]: inactive | MIC [42]: 0.063 µg/mL (≈ 0.0412 µM) | MIC [43]: 0.25 µg/mL (≈ 0.164 µM) | Activity [44]: Active | MIC [45]: 0.078 µg/mL (≈ 0.051 µM)
